Experimental data: patent US12036212B2, “Enhancement of tumor response to chemotherapy by activation of the asmase/ceramide pathway through timed administration of a short-acting anti-angiogenic agent” (Memorial Sloan-Kettering Cancer Center, priority 2014, dated 2024)

What was measured:
ceramide [1] = test: Ceramide generation (diacylglycerol kinase assay) in BAEC; type: cell-based, bovine; conditions: paclitaxel 100 nM; for Ceramide generation: etoposide 50 μM, cisplatin 0.1-50 μM
Experimental: BAEC were established from the intima of bovine aorta as described^1. Stock cultures were grown in 100-mm dishes in Dulbecco's modified Eagle's medium (DMEM) supplemented with glucose (1 g/liter), 5% heat-inactivated calf serum (CS), penicillin (50 units/ml), and streptomycin (50 μg/ml). Purified human recombinant bFGF (1 ng/ml; R&D Systems, Inc., Minneapolis, MN) was added every other day during the exponential growth phase. […] These plateau phase cells were either used for experiments, or further sub-cultured (up to a maximum of 10 times) at a split ratio of 1:8. For sub-culturing, monolayers were dissociated with STV (0.05% trypsin and 0.02% EDTA in PBS) for 2-3 min at 22° C., washed twice in 5% CS-DMEM, and resuspended in DMEM with supplements as above. These mild conditions of trypsinization were sufficient to detach cells but not injure, stimulate, or affect cell function in a detectable way. BAEC were maintained at 37° C. in 10% CO2 humidified incubators.
After treatment, cells were placed on ice, washed with cold PBS, and lipids were extracted by addition of scraped cells in methanol to an equal volume of chloroform and 0.6 volume of buffered saline/EDTA solution (135 mM NaCl, 4.5 mM KCl, 1.5 mM CaCl2), 0.5 mM MgCl2, 5.6 mM glucose, 10 mM HEPES pH 7.2, 10 mM EDTA). Lipids in the organic phase extract were dried under N2 and subjected to mild alkaline hydrolysis (0.1 N methanolic KOH for 1 hour at 37° C.) to remove glycerophospholipids. Samples were re-extracted, and the organic phase was dried under N2. Ceramide contained in each sample was resuspended in a 100 μl reaction mixture containing 150 μg of cardiolipin, 280 μM diethylenetriaminepentaacetic acid, 51 mM octyl-β-glucopyranoside (Calbiochem), 50 mM NaCl, 51 mM imidazole, 1 mM EDTA, 12.5 mM MgCl2, 2 mM dithiothreitol, 0.7% glycerol, 70 μM β-mercaptoethanol, 1 mM ATP, 10 μCi of [γ-^32P]ATP, 35 μg/ml Escherichia coli diacylglycerol kinase (Calbiochem) at pH 6.5. After 30 minutes at room temperature, the reaction was stopped by extraction of lipids with 1 ml of chloroform:methanol:1 N HCl (100:100:1), 170 μl of buffered saline solution (BSS) (135 mM NaCl, 1.5 mM CaCl2, 0.5 mM MgCl2, 5.6 mM glucose, and 10 mM HEPES (pH 72), and 30 μl of 100 mM EDTA. The lower organic phase was dried under N2. Ceramide-1 phosphate was resolved by thin-layer chromatography on silica gel 60 plates (Whatman) using a solvent system of chloroform:methanol:acetic acid (65:15:5, v/v/v) and detected by autoradiography, and incorporated ^32P was quantified by liquid scintillation counting. The level of ceramide was determined by comparison with a standard curve generated concomitantly of known amounts of ceramide.
To test the effect of chemotherapy on ASMase signaling and ceramide production, BAEC were treated with paclitaxel (100 nM) and ASMase activity was determined by radioenzymatic assay (Rotolo et al, infra) using [^14C-methylcholine] sphingomyelin (Amersham) as substrate (FIG. 1A). […] Ceramide generation was monitored using the diacylglycerol kinase assay (Stancevic et al. PLoS ONE 8, e69025, 2013). […]
(§1) To determine the generality of the results observed, experiments were carried out using an additional endothelial cell line, human coronary artery endothelial cells (HCAEC); experiments were also performed using a different chemotherapeutic agent. […] Next, HCAEC were treated with paclitaxel (100 nM) (data not shown) and etoposide (50 μM) (FIG. 1F), and ceramide generation was evaluated. […]

ceramide [2] = test: Ceramide generation in HCAEC; type: cell-based, human; conditions: paclitaxel 100 nM, etoposide 50 μM, cisplatin 0.1-50 μM
Experimental: HCAEC were obtained from Clonetics™ Coronary Artery Endothelial Cell Systems (Cambrex Bio Science Inc.). For HCAEC culturing and sub-culturing Clonetics cell system components were used: EBM®-2, Endothelial Cell Basal Medium-2 with addition of Clonetics EGM-2-MV SingleQuots containing growth supplements (Cambrex) (Biomedical Technologies, Inc.). For sub-culturing, monolayers were dissociated with Clonetics® Trypsin/EDTA solution for 2-3 min at 22° C. at a split ratio of 1:4 to expand the cell population for experiments. HCAEC cultures were maintained at 37° C. in 5% CO2 humidified incubators.
After treatment, cells were placed on ice, washed with cold PBS, and lipids were extracted by addition of scraped cells in methanol to an equal volume of chloroform and 0.6 volume of buffered saline/EDTA solution (135 mM NaCl, 4.5 mM KCl, 1.5 mM CaCl2), 0.5 mM MgCl2, 5.6 mM glucose, 10 mM HEPES pH 7.2, 10 mM EDTA). […] After 30 minutes at room temperature, the reaction was stopped by extraction of lipids with 1 ml of chloroform:methanol:1 N HCl (100:100:1), 170 μl of buffered saline solution (BSS) (135 mM NaCl, 1.5 mM CaCl2, 0.5 mM MgCl2, 5.6 mM glucose, and 10 mM HEPES (pH 72), and 30 μl of 100 mM EDTA. The lower organic phase was dried under N2. Ceramide-1 phosphate was resolved by thin-layer chromatography on silica gel 60 plates (Whatman) using a solvent system of chloroform:methanol:acetic acid (65:15:5, v/v/v) and detected by autoradiography, and incorporated ^32P was quantified by liquid scintillation counting. The level of ceramide was determined by comparison with a standard curve generated concomitantly of known amounts of ceramide.
as §1

Structure (SMILES) | Ceramide generation (ceramide [1]) | Ceramide generation (ceramide [2]) | Ceramide generation persisted for (ceramide [1])
N.N.[Cl][Pt][Cl] [cisplatin] | failed to activate ASMase and result in generation of ceramide | failed to activate ASMase and result in generation of ceramide | –
CC(=O)O[C@H]1C(=O)[C@@]2(C)[C@H]([C@H](OC(=O)c3ccccc3)[C@]3(O)C[C@H](OC(=O)[C@H](O)[C@@H](NC(=O)c4ccccc4)c4ccccc4)C(C)=C1C3(C)C)[C@]1(OC(C)=O)CO[C@@H]1C[C@@H]2O [paclitaxel] | peaked within minutes | leads to the generation of ceramide | 30 min
